{"source": "patent US20150139950A1", "about": "“ALISPORIVIR TO TREAT HEPATITIS C VIRUS INFECTION” (Novartis AG, priority 2011, published 2015)", "tested_on": "Hepatitis C virus genotype 1", "experiment": "Clinical study of alisporivir/peg-IFNα2a/ribavirin in treatment naïve chronic HCV genotype 1 patients, by IL28B genotype", "assay_type": "in vivo, human", "description": "An international, multicentre, randomised, double-blind, placebo-controlled, 4-arm parallel-group multiple dose study comparing three alisporivir/peg-IFNα2a/ribavirin regimens to standard of care treatment in 272 treatment naïve chronic HCV genotype 1 patients is provided.\nPatients are randomized into one of 3 treatment arms (A, B and C) as described below in a 1:1:1 ratio. The randomization is stratified by baseline HCV RNA (HCV RNA<800000 IU/mL or HCV RNA≧800000 IU/mL) and BMI (BMI<25 kg/m2 or BMI≧25 kg/m2) at screening.\nAlisporivir: 3 capsules of 200 mg (600 mg) alisporivir 2×/day orally for 1 week followed by 3 capsules of 200 mg alisporivir (600 mg) 1×/day for 47 weeks.\nPegylated interferon alfa 2a: 180 μg subcutaneously (s.c.) once weekly for 48 weeks\nRibavirin: 1000 mg/day (<75 kg) or 1200 mg/day (≧75 kg) orally in two divided doses for 48 weeks\nPrimary efficacy endpoint: proportion of patients achieving SVR 24 (HCV RNA<10 IU/mL at maximum 24 weeks after treatment end).\nGenotyping of IL-28B by was carried out using the MALDI-TOF MS (matrix-assisted laser desorption/ionization time-of-flight mass spectrometer) technique which has emerged as a widely applicable method in molecular biology for fast and highly accurate DNA analysis. […]\nFrequency of genetic polymorphisms of IL28B was calculated by treatment arm. […]"}
{"smiles": "C/C=C/C[C@@H](C)[C@@H](O)[C@H]1C(=O)N[C@@H](CC)C(=O)N(C)[C@H](C)C(=O)N(CC)[C@@H](C(C)C)C(=O)N[C@@H](C(C)C)C(=O)N(C)[C@@H](CC(C)C)C(=O)N[C@@H](C)C(=O)N[C@H](C)C(=O)N(C)[C@@H](CC(C)C)C(=O)N(C)[C@@H](CC(C)C)C(=O)N(C)[C@@H](C(C)C)C(=O)N1C", "note": "[alisporivir, Alisporivir]", "values": [{"measurement": "treatment results of chronic Hepatitis C virus genotype 1 infection", "setting": "patient with IL28B nonC/C genotype", "value": "particularly satisfactory treatment results"}, {"measurement": "treatment of HCV", "setting": "patients with IL28B C/C genotype", "value": "can also be used effectively"}]}
